In patent publication US20080070939A1, “LOCAL […] COMPOSITIONS CONTAINING DEXTROROTATORY MORPHINAN DERIVATIVES OR PHARMACEUTICALLY ACCEPTABLE SALTS THEREOF” (CHI MEI FOUNDATION HOSPITAL, priority 2006, published 2008):
Structures can show the parent of a compound that is named as a salt. Where two headings read alike, the source gives them in different places.

What was measured:
Male Sprague-Dawley rats = assay: Spinal anesthetic effect (spinal blockade) after intrathecal injection in rats; type: in vivo; design: AUC of time-% PE curve, spinal blockade of motor function / AUC of time-% PE curve, spinal blockade of proprioception / AUC of time-% PE curve, spinal blockade of nociceptive reaction: unit not given beside the values
Protocol: (§1) Male Sprague-Dawley rats (weighing about 300 to 350 g); for each dose of each drug, n=6.
In brief, for preparation, the hairs on the back of each rat were shaved, and the shaved back was sterilized with iodine.
After three minutes, 50 μL of each of the tested drugs was injected via a 27-gauge needle attached to a 100-μL syringe (Hamilton, Reno, Nev.) into the intrathecal space between the fourth and fifth lumbar vertebrae. The development of spinal blockade was observed from the paralysis of the hind limbs of the rats.
The magnitude of nerve block (including blocking of motor function, proprioception, and nociceptive reaction) was expressed as the percentage of possible effect (hereinafter referred to as % PE), and the maximal value of % PE was expressed as the percentage of maximal possible effect (hereinafter referred to as % MPE).
Motor function was evaluated by measuring the extensor postural thrust of the right hind limbs of the rats using a digital platform balance (Mettler Toledo, Switzerland, model PB1502-S). To test the extensor postural thrust, the rat was held upright with the hind limb extended, so that the body weight of the rat was supported by the distal metatarsus and toes. The extensor postural thrust could be measured as the force of the right hind limb of the rat thrusting the platform balance.
A reduction in the force, resulting in extensor muscle tone, was considered as a motor deficit. A force less than 20 g (i.e., a weight of the “flaccid limb”) was considered absence of an extensor postural thrust or 100% motor block or 100% MPE.
Proprioception was evaluated based on resting posture and postural reactions (including tactile placing and hopping). First, the front half of the rat body and one of the hind limbs were lifted off the ground at the same time so that the rat was standing on one hind limb. Then, the rat was moved laterally, which normally evoked a prompt hopping response of the weight-bearing hind limb of the rat in the direction of movement so as to avoid falling. A predominantly proprioceptive block caused a delayed hopping followed by greater lateral hops. […] Functional deficits were classified into four grades: 3 (normal or 0% MPE), 2 (slightly impaired), 1 (severely impaired), and 0 (completely impaired or 100% MPE).
Nociceptive reaction was evaluated by the withdrawal reflex or vocalization elicited by the pinch of a skin fold over the back at 1 cm near the proximal part of the tail, the lateral metatarsus of the bilateral hind limbs, and the dorsal part of the mid-tail. At each testing time, only one pinch was given to each of the abovementioned four testing sites, and the time interval between stimulations at different sites was around 2 seconds. Nociceptive reactions were classified into five grades: 4 (normal or 0% MPE), 3 (25% MPE), 2 (50% MPE), 1 (75% MPE), and 0 (absent or 100% MPE).
The potency of each drug on spinal blockades was compared using ED50.
Duration was defined as the interval from injection of the tested drugs to complete recovery. The ED25, ED50 and ED75 obtained according to the SAS NLIN analysis in the preceding section “C. Potency evaluation” were used in this experiment.
Regarding the method of evaluating the effect of co-administration, dextromethorphan hydrobromide monohydrate was used as an example.
After the tests, the time of measurement of each drug and its corresponding % PE were plotted to obtain the time-% PE curves of each drug. The area under the curve (AUC) of time-% PE was calculated using the trapezoidal rule, and was used to evaluate the effect of the co-administration of the drugs.
Statistical software, SPSS for Windows® (version 10.0.7) was used. Data were represented as mean±SEM.

sciatic nerve = assay: Sciatic nerve blockade after injection at the sciatic nerve notch in rats; type: in vivo; design: AUC of time-% PE curve, sciatic nerve blockade of motor function / AUC of time-% PE curve, sciatic nerve blockade of proprioception / AUC of time-% PE curve, sciatic nerve blockade of nociceptive reaction: unit not given beside the values; conditions: for ED50: Rattus norvegicus
Protocol: as §1
In brief, the rats were slightly anesthetized by inhalation of a low concentration of sevoflurane. Then, 200 μL of tested drugs were injected at the sciatic nerve notch at the left hind limb of the rat using a 27-gauge needle connected to a tuberculin syringe (Becton Dickinson, USA, model BND309623-BX). Thereafter, development of sciatic nerve blockade was observed from the paralysis of the left hind limb of the rat. The right hind limb served as a control during the subsequent functional assay
For proprioception, the front half of the rat body and the right hind limb were off the ground at the same time so that the rat was standing on the left hind limb during the measurement.
The differences resided in that: The sciatic nerve notch injections of ED25, ED50 and ED75 were conducted based on the method described in the preceding section “A. Drug injection” of this example. Evaluations of motor function, proprioception and nociceptive reaction were conducted based on the method described in section “B. Neurobehavioral evaluations” of this example.
The differences resided in that: Before the statistical analysis, Shapiro-Wilk test was used to evaluate whether the data were, theoretically, normally distributed.

rats = assay: Systemic safety indices: mortality 24 hours after intraperitoneal injection in rats
Protocol: (§2) Essentially, each drug was injected intraperitoneally into the rats (n=8). The number of dead rats was observed after 24 hours, and the rate of mortality (%) was calculated. Thereafter, the doses of each drug and the relative mortality were plotted to obtain dose-mortality curves of the drugs. […] The safety index (LD50/ED50) of each drug was calculated using the LD50 thus obtained and the ED50 obtained in the section “C. Potency evaluation” of this example.

[1] = as above; conditions: rat, in vivo, ip
Protocol: as §2

[2] = intrathecal, rats, 2 ED50 when administered independently, ED50 of each drug when co-administered, mean ± SEM
[3] = spinal blockade, mean of motor function, proprioception and nociceptive reaction, intrathecal, rats
[4] = dosage of 6.7 mg/kg, sciatic nerve notch injection, rats
[5] = rats, 2ED50 when administered independently, ED50 of each drug when co-administered, mean ± SEM

## COc1ccc2c(c1)[C@]13CCCC[C@@H]1[C@H](C2)N(C)CC3 [Dextromethorphan hydrobromide monohydrate]
Male Sprague-Dawley rats; intrathecal dose of ED75, rats
  % MPE of spinal blockades of motor function, proprioception and nociceptive reaction (range over the three functions): 66-80 % MPE
  duration of spinal blockades of motor function, proprioception and nociceptive reaction (range over the three functions): 22 to 40 min
Male Sprague-Dawley rats; intrathecal, rats, ED50 of each drug
  effect of co-administration with bupivacaine hydrochloride on spinal blockade: additive effect
Male Sprague-Dawley rats; [2]
  AUC of time-% PE curve, spinal blockade of motor function: 953 ± 114
  AUC of time-% PE curve, spinal blockade of nociceptive reaction: 4131 ± 385
  AUC of time-% PE curve, spinal blockade of proprioception: 1985 ± 219
Male Sprague-Dawley rats; spinal blockade of motor function, intrathecal injection, rats
  Motor function ED50 (95% CI): 0.56 (0.54–0.59) mg
Male Sprague-Dawley rats; spinal blockade of nociceptive reaction, intrathecal injection, rats
  Nociceptive reaction ED50 (95% CI): 0.46 (0.43–0.49) mg
Male Sprague-Dawley rats; spinal blockade of proprioception, intrathecal injection, rats
  Proprioception ED50 (95% CI): 0.48 (0.45–0.52) mg
Male Sprague-Dawley rats; [3]
  Mean value ED25: 0.39 mg
  Mean value ED50: 0.50 mg
  Mean value ED75: 0.65 mg
Sciatic nerve; ED50 basis, p<0.01, rats
  sciatic nerve blocking effect on nociceptive reaction compared with motor function: more potent sciatic nerve blocking effect on nociceptive reaction than on motor function
Sciatic nerve; read-out: Mean ED50
  ED50: 3.72 mg/kg
Sciatic nerve; read-out: Motor function ED50 (95% CI)
  ED50: 3.95 mg/kg
Sciatic nerve; read-out: Nociceptive reaction ED50 (95% CI)
  ED50: 3.49 mg/kg
Sciatic nerve; read-out: Proprioception ED50 (95% CI)
  ED50: 3.73 mg/kg
Sciatic nerve; [4]
  % MPE of sciatic nerve blockade of motor function: about 71±7 % MPE
  % MPE of sciatic nerve blockade of nociceptive reaction: ~83±11 % MPE
  % MPE of sciatic nerve blockade of proprioception: ~78±7 % MPE
  duration of sciatic nerve blockade of motor function: about 77±10 minutes
  duration of sciatic nerve blockade of nociceptive reaction: ~85 ± 11 min
  duration of sciatic nerve blockade of proprioception: ~78 ± 8 min
Sciatic nerve; rats, ED50 of each drug
  effect of co-administration with lidocaine hydrochloride on sciatic nerve blockades: additive effect
Sciatic nerve; [5]
  AUC of time-% PE curve, sciatic nerve blockade of motor function: 4056 ± 212
  AUC of time-% PE curve, sciatic nerve blockade of nociceptive reaction: 6295 ± 643
  AUC of time-% PE curve, sciatic nerve blockade of proprioception: 5498 ± 507
Sciatic nerve; same effective doses (ED25, ED50 or ED75), rats
  duration of sciatic nerve blockade compared with lidocaine hydrochloride: longer reaction duration
rats; LD50/ED50, rats
  systemic safety index relative to that of lidocaine hydrochloride: 2.4 times
rats; LD50 intraperitoneal / ED50 of infiltrative cutaneous anesthesia, rats
  safety index LD50/ED50: 67.3
[1]
  LD50 at 24 h: 138 mg/kg
